From patent US20240174624A1, “CHIRAL N-(1,3,4-OXADIAZOLE-2-YL)PHENYL CARBOXYLIC ACID AMIDES AND THEIR USE AS HERBICIDES” (Bayer Aktiengesellschaft, priority 2021, published 2024)

Experiments:
GLXMA = assay: Pre-emergence damage to crop plants; format: in vivo, Glycine max; settings: 80 g a.i./ha, comparative experiment
Description: (§1) Seeds of monocotyledonous and dicotyledonous weed plants and crop plants are laid out in sandy loam soil in wood-fibre pots and covered with soil. The compounds of the invention, formulated in the form of wettable powders (WP) or as emulsion concentrates (EC), are then applied to the surface of the covering soil in the form of an aqueous suspension or emulsion at a water application rate equivalent to 600 to 800 l/ha, with addition of 0.2% wetting agent. After the treatment, the pots are placed in a greenhouse and kept under good growth conditions for the trial plants. The damage to the test plants is scored visually after a test period of 3 weeks by comparison with untreated controls (herbicidal activity in percent (%): 100% activity=the plants have died, 0% activity=like control plants). […] The tables below illustrate, in an illustrative manner, the post-emergence herbicidal action of the compounds of the invention, the herbicidal activity being stated in percent. In the experiments that follow, the herbicidal action of the compounds of the invention and that of the corresponding known racemic compounds closest from WO2012126932 and WO2018202535 were compared under the above-specified conditions by the pre-emergence and post-emergence method. The example numbers given in the tables relate to the compounds disclosed in the respective documents.

ORYZA = assay: Post-emergence damage to crop plants; format: in vivo, Oryza sativa; settings: 5 g a.i./ha, comparative experiment
Procedure: (§2) Seeds of monocotyledonous and dicotyledonous weed and crop plants are laid out in sandy loam soil in wood-fibre pots, covered with soil and cultivated in a greenhouse under good growth conditions. 2 to 3 weeks after sowing, the test plants are treated at the one-leaf stage. The compounds of the invention, formulated in the form of wettable powders (WP) or as emulsion concentrates (EC), are then sprayed onto the green parts of the plants in the form of an aqueous suspension or emulsion at a water application rate equating to 600 to 800 l/ha, with addition of 0.2% wetting agent. After the test plants have been left to stand in the greenhouse under optimal growth conditions for about 3 weeks, the action of the preparations is assessed visually in comparison to untreated controls (herbicidal action in percent (%): 100% activity=the plants have died, 0% activity=like control plants). […] The tables below illustrate, in an illustrative manner, the post-emergence herbicidal action of the compounds of the invention, the herbicidal activity being stated in percent. In the experiments that follow, the herbicidal action of the compounds of the invention and that of the corresponding known racemic compounds closest from WO2012126932 and WO2018202535 were compared under the above-specified conditions by the pre-emergence and post-emergence method. The example numbers given in the tables relate to the compounds disclosed in the respective documents.

TRZAS [1] = assay: Pre-emergence damage to crop plants; format: in vivo, Triticum aestiva; settings: comparative experiment
Description: as §1

ECHCG [2] = assay: Post-emergence herbicidal action; format: in vivo, Echinochloa crus-galli; settings: for Post-emergence action against ECHCG: assessed after about 3 weeks
Procedure: as §2

ECHCG [3] = assay: Pre-emergence herbicidal action; format: in vivo, Echinochloa crus-galli; settings: scored after 3 weeks
Description: as §1, with “percent.” for “percent. In the experiments that follow, the herbicidal action of the compounds of the invention and that of the corresponding known racemic compounds closest from WO2012126932 and WO2018202535 were compared under the above-specified conditions by the pre-emergence and post-emergence method. The example numbers given in the tables relate to the compounds disclosed in the respective documents.”

BRSNW = assay: Pre-emergence damage to crop plants; format: in vivo, Brassica napus; settings: 20 g a.i./ha, comparative experiment
Description: as §1

PHBPU = assay: Post-emergence herbicidal action; format: in vivo, Pharbitis purpurea; settings: assessed after about 3 weeks
Procedure: as §2, with “percent.” for “percent. In the experiments that follow, the herbicidal action of the compounds of the invention and that of the corresponding known racemic compounds closest from WO2012126932 and WO2018202535 were compared under the above-specified conditions by the pre-emergence and post-emergence method. The example numbers given in the tables relate to the compounds disclosed in the respective documents.”

TRZAS [4] = assay: Post-emergence damage to crop plants; format: in vivo, Triticum aestiva; settings: comparative experiment
Procedure: as §2

VIOTR [5] = assay: Post-emergence herbicidal action; format: in vivo, Viola tricolor; settings: 20 g/ha, assessed after about 3 weeks
Procedure: as §2

STEME [6] = assay: Post-emergence herbicidal action; format: in vivo, Stellaria media; settings: 20 g/ha, assessed after about 3 weeks
Procedure: as §2

STEME [7] = assay: Pre-emergence herbicidal action; format: in vivo, Stellaria media; settings: scored after 3 weeks
Description: as §1

AMARE [8] = assay: Post-emergence herbicidal action; format: in vivo, Amaranthus retroflexus; settings: assessed after about 3 weeks
Procedure: as §2, with “percent.” for “percent. In the experiments that follow, the herbicidal action of the compounds of the invention and that of the corresponding known racemic compounds closest from WO2012126932 and WO2018202535 were compared under the above-specified conditions by the pre-emergence and post-emergence method. The example numbers given in the tables relate to the compounds disclosed in the respective documents.”

DIGSA [9] = assay: Post-emergence herbicidal action; format: in vivo, Digitaria sanguinalis; settings: assessed after about 3 weeks
Procedure: as §2

SETVI [10] = assay: Pre-emergence herbicidal action; format: in vivo, Setaria viridis; settings: 80 g/ha, scored after 3 weeks
Description: as §1

VIOTR [11] = assay: Pre-emergence herbicidal action; format: in vivo, Viola tricolor; settings: scored after 3 weeks
Description: as §1, with “percent.” for “percent. In the experiments that follow, the herbicidal action of the compounds of the invention and that of the corresponding known racemic compounds closest from WO2012126932 and WO2018202535 were compared under the above-specified conditions by the pre-emergence and post-emergence method. The example numbers given in the tables relate to the compounds disclosed in the respective documents.”

MATIN [12] = assay: Post-emergence herbicidal action; format: in vivo, Matricaria inodora; settings: 20 g/ha, assessed after about 3 weeks
Procedure: as §2, with “percent.” for “percent. In the experiments that follow, the herbicidal action of the compounds of the invention and that of the corresponding known racemic compounds closest from WO2012126932 and WO2018202535 were compared under the above-specified conditions by the pre-emergence and post-emergence method. The example numbers given in the tables relate to the compounds disclosed in the respective documents.”

SETVI [13] = assay: Post-emergence herbicidal action; format: in vivo, Setaria viridis; settings: 20 g/ha, assessed after about 3 weeks
Procedure: as §2

ZEAMX = assay: Pre-emergence damage to crop plants; format: in vivo, Zea mays; settings: comparative experiment
Description: as §1

DIGSA [14] = assay: Pre-emergence herbicidal action; format: in vivo, Digitaria sanguinalis; settings: scored after 3 weeks
Description: as §1, with “percent.” for “percent. In the experiments that follow, the herbicidal action of the compounds of the invention and that of the corresponding known racemic compounds closest from WO2012126932 and WO2018202535 were compared under the above-specified conditions by the pre-emergence and post-emergence method. The example numbers given in the tables relate to the compounds disclosed in the respective documents.”

MATIN [15] = assay: Pre-emergence herbicidal action; format: in vivo, Matricaria inodora; settings: 80 g/ha, scored after 3 weeks
Description: as §1

AMARE [16] = assay: Pre-emergence herbicidal action; format: in vivo, Amaranthus retroflexus; settings: scored after 3 weeks
Description: as §1, with “percent.” for “percent. In the experiments that follow, the herbicidal action of the compounds of the invention and that of the corresponding known racemic compounds closest from WO2012126932 and WO2018202535 were compared under the above-specified conditions by the pre-emergence and post-emergence method. The example numbers given in the tables relate to the compounds disclosed in the respective documents.”

SMILES: C[S+]([O-])c1c(C(F)F)ccc(C(=O)Nc2nnco2)c1Cl (racemic) [Racemate, known from WO2018202535, 2-chloro-N-(1,3,4-oxadiazol-2-yl)-3-[(rac)-methylsulfinyl]-4-(difluoromethyl)benzamide, reference compound]
- Damage to GLXMA (GLXMA): 80%
- Damage to ORYZA (ORYZA): 60%
- Damage to TRZAS (TRZAS [1]; 20 g a.i./ha): 70%
- Damage to TRZAS (TRZAS [1]; 80 g a.i./ha): 100%
- Herbicidal action against ECHCG (ECHCG [2]; 5 g a.i./ha, comparative experiment): 70%

SMILES: Cc1c(C(=O)Nc2nnco2)ccc(C(F)(F)F)c1[S+](C)[O-] (stereo in doubt) [Example I-3, 2-methyl-N-(1,3,4-oxadiazol-2-yl)-3-[(S)-methylsulfinyl]-4-(trifluoromethyl)benzamide]
- Pre-emergence action against ECHCG (ECHCG [3]; 20 g/ha): 90%
- Pre-emergence action against ECHCG (ECHCG [3]; 80 g/ha): 100%
- Damage to BRSNW (BRSNW): 70%
- Damage to GLXMA (GLXMA): 50%
- Post-emergence action against PHBPU (PHBPU; 5 g/ha): 80%
- Post-emergence action against PHBPU (PHBPU; 20 g/ha): 80%
- Damage to TRZAS (TRZAS [4]; 5 g a.i./ha): 20%
- Damage to TRZAS (TRZAS [4]; 20 g a.i./ha): 30%
- Damage to ORYZA (ORYZA): 30%
- Post-emergence action against VIOTR (VIOTR [5]): 90%
- Post-emergence action against STEME (STEME [6]): 80%
- Pre-emergence action against STEME (STEME [7]; 20 g/ha): 80%
- Pre-emergence action against STEME (STEME [7]; 80 g/ha): 100%
- Post-emergence action against AMARE (AMARE [8]; 5 g/ha): 90%
- Post-emergence action against AMARE (AMARE [8]; 20 g/ha): 90%
- Post-emergence action against DIGSA (DIGSA [9]; 5 g/ha): 90%
- Post-emergence action against DIGSA (DIGSA [9]; 20 g/ha): 90%
- Damage to TRZAS (TRZAS [1]; 20 g a.i./ha): 0%
- Damage to TRZAS (TRZAS [1]; 80 g a.i./ha): 30%
- Pre-emergence action against SETVI (SETVI [10]): 90%
- Pre-emergence action against VIOTR (VIOTR [11]; 20 g/ha): 90%
- Pre-emergence action against VIOTR (VIOTR [11]; 80 g/ha): 100%
- Post-emergence action against ECHCG (ECHCG [2]; 5 g/ha): 80%
- Post-emergence action against ECHCG (ECHCG [2]; 20 g/ha): 90%
- Post-emergence action against MATIN (MATIN [12]): 80%
- Post-emergence action against SETVI (SETVI [13]): 90%
- Damage to ZEAMX (ZEAMX; 20 g a.i./ha): 0%
- Damage to ZEAMX (ZEAMX; 80 g a.i./ha): 0%
- Pre-emergence action against DIGSA (DIGSA [14]; 20 g/ha): 100%
- Pre-emergence action against DIGSA (DIGSA [14]; 80 g/ha): 100%
- Pre-emergence action against MATIN (MATIN [15]): 90%
- Pre-emergence action against AMARE (AMARE [16]; 20 g/ha): 100%
- Pre-emergence action against AMARE (AMARE [16]; 80 g/ha): 100%

SMILES: Cc1c(C(=O)Nc2nnco2)ccc(C(F)(F)F)c1[S+](C)[O-] (racemic) [1-144 from WO2012126932, 2-methyl-N-(1,3,4-oxadiazol-2-yl)-3-[(rac)-methylsulfinyl]-4-(trifluoromethyl)benzamide, reference compound]
- Damage to BRSNW (BRSNW): 100%
- Damage to GLXMA (GLXMA): 80%
- Damage to TRZAS (TRZAS [4]; 5 g a.i./ha): 40%
- Damage to TRZAS (TRZAS [4]; 20 g a.i./ha): 50%
- Damage to ORYZA (ORYZA): 60%
- Damage to TRZAS (TRZAS [1]; 20 g a.i./ha): 50%
- Damage to TRZAS (TRZAS [1]; 80 g a.i./ha): 90%
- Damage to ZEAMX (ZEAMX; 20 g a.i./ha): 20%
- Damage to ZEAMX (ZEAMX; 80 g a.i./ha): 30%
